Tested on: 422866-222-R5-J1-PDC complex spheroids viability
Assay: Anticancer human tumor 422866-222-R5-J1-PDC patient-derived pancreatic adenocarcinoma cell line growth inhibition [RAS]
Details: for IC50: curve of first compound; for viability, T/C: stronger effect = lower value
Method in brief: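 Agents were tested in combination matrices in half-log decrements from a top concentration at or near clinical Cmax (10 microM if undetermined). Targets were multi-cell spheroids of tumour lines plus HUVEC and MSC stromal cells.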

[1] = second compound 0.00316 µM, first compound 0.0316 µM
[2] = second compound 0.00316 µM, first compound 0.1 µM
[3] = second compound 0.00316 µM, first compound 0.316 µM
[4] = second compound 0.00316 µM, first compound 1 µM
[5] = second compound 0.00316 µM, first compound 3.16 µM
[6] = second compound 0.00316 µM, first compound 10 µM
[7] = second compound 0.01 µM, first compound 0.0316 µM
[8] = second compound 0.01 µM, first compound 0.1 µM
[9] = second compound 0.01 µM, first compound 0.316 µM
[10] = second compound 0.01 µM, first compound 1 µM
[11] = second compound 0.01 µM, first compound 3.16 µM
[12] = second compound 0.01 µM, first compound 10 µM
[13] = second compound 0.0316 µM, first compound 0.0316 µM
[14] = second compound 0.0316 µM, first compound 0.1 µM
[15] = second compound 0.0316 µM, first compound 0.316 µM
[16] = second compound 0.0316 µM, first compound 1 µM
[17] = second compound 0.0316 µM, first compound 3.16 µM
[18] = second compound 0.0316 µM, first compound 10 µM
[19] = second compound 0.1 µM, first compound 0.0316 µM
[20] = second compound 0.1 µM, first compound 0.1 µM
[21] = second compound 0.1 µM, first compound 0.316 µM
[22] = second compound 0.1 µM, first compound 1 µM
[23] = second compound 0.1 µM, first compound 3.16 µM
[24] = second compound 0.1 µM, first compound 10 µM
[25] = second compound 0.316 µM, first compound 0.0316 µM
[26] = second compound 0.316 µM, first compound 0.1 µM
[27] = second compound 0.316 µM, first compound 0.316 µM
[28] = second compound 0.316 µM, first compound 1 µM
[29] = second compound 0.316 µM, first compound 3.16 µM
[30] = second compound 0.316 µM, first compound 10 µM
[31] = second compound 1 µM, first compound 0.0316 µM
[32] = second compound 1 µM, first compound 0.1 µM
[33] = second compound 1 µM, first compound 0.316 µM
[34] = second compound 1 µM, first compound 1 µM
[35] = second compound 1 µM, first compound 3.16 µM
[36] = second compound 1 µM, first compound 10 µM
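Also: spheroids exposed to compounds for 7 days.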
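For viability, T/C in this document: 100% = DMSO vehicle control viability.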

CC1(O)CCCC1n1c(=O)c(C(F)F)cc2cnc(NC3CCN(S(C)(=O)=O)CC3)nc21 (stereo not given) + C=CC(=O)N1CCN(c2nc(OCC3CCCN3C)nc3c(F)c(-c4nc(N)cc(C)c4C(F)(F)F)c(Cl)cc23)C(C)C1
IC50 (second compound 0.00316 µM): < 31.6 nM
IC50 (second compound 0.01 µM): < 31.6 nM
IC50 (second compound 0.0316 µM): < 31.6 nM
IC50 (second compound 0.1 µM): < 31.6 nM
IC50 (second compound 0.316 µM): < 31.6 nM
IC50 (second compound 1 µM): < 31.6 nM
viability, T/C [1]: 32.6%
viability, T/C [2]: 25.6%
viability, T/C [3]: 26%
viability, T/C [4]: 31.4%
viability, T/C [5]: 33.3%
viability, T/C [6]: 33.1%
viability, T/C [7]: 27.6%
viability, T/C [8]: 25.8%
viability, T/C [9]: 28.1%
viability, T/C [10]: 25.4%
viability, T/C [11]: 30.3%
viability, T/C [12]: 33.9%
viability, T/C [13]: 33.6%
viability, T/C [14]: 20.7%
viability, T/C [15]: 22.5%
viability, T/C [16]: 21.6%
viability, T/C [17]: 26.5%
viability, T/C [18]: 24.9%
viability, T/C [19]: 18.4%
viability, T/C [20]: 19.9%
viability, T/C [21]: 22.1%
viability, T/C [22]: 23%
viability, T/C [23]: 28%
viability, T/C [24]: 29.3%
viability, T/C [25]: 21.9%
viability, T/C [26]: 20.4%
viability, T/C [27]: 23.6%
viability, T/C [28]: 23.8%
viability, T/C [29]: 29.7%
viability, T/C [30]: 35.3%
viability, T/C [31]: 20.6%
viability, T/C [32]: 20.3%
viability, T/C [33]: 23.9%
viability, T/C [34]: 23.4%
viability, T/C [35]: 30.6%
viability, T/C [36]: 40.1%

CCC(CC)c1cc(NC2CCC(N)C2)n2nccc2n1 (stereo not given) + C=CC(=O)N1CCN(c2nc(OCC3CCCN3C)nc3c(F)c(-c4nc(N)cc(C)c4C(F)(F)F)c(Cl)cc23)C(C)C1
IC50 (second compound 0.00316 µM): < 31.6 nM
IC50 (second compound 0.01 µM): < 31.6 nM
IC50 (second compound 0.0316 µM): < 31.6 nM
IC50 (second compound 0.1 µM): < 31.6 nM
IC50 (second compound 0.316 µM): < 31.6 nM
IC50 (second compound 1 µM): < 31.6 nM
viability, T/C [1]: 25.9%
viability, T/C [2]: 36.1%
viability, T/C [3]: 32.8%
viability, T/C [4]: 30.5%
viability, T/C [5]: 9.42%
viability, T/C [6]: 32.1%
viability, T/C [7]: 36.9%
viability, T/C [8]: 26.8%
viability, T/C [9]: 30.6%
viability, T/C [10]: 28.9%
viability, T/C [11]: 8.11%
viability, T/C [12]: 33.1%
viability, T/C [13]: 38.8%
viability, T/C [14]: 34.4%
viability, T/C [15]: 26.6%
viability, T/C [16]: 27.2%
viability, T/C [17]: 8.27%
viability, T/C [18]: 31.5%
viability, T/C [19]: 19.1%
viability, T/C [20]: 24.1%
viability, T/C [21]: 24.2%
viability, T/C [22]: 25.6%
viability, T/C [23]: 6.99%
viability, T/C [24]: 35.6%
viability, T/C [25]: 19.3%
viability, T/C [26]: 22.3%
viability, T/C [27]: 27.6%
viability, T/C [28]: 25.3%
viability, T/C [29]: 7.15%
viability, T/C [30]: 36.3%
viability, T/C [31]: 19.6%
viability, T/C [32]: 22.8%
viability, T/C [33]: 28.9%
viability, T/C [34]: 27.1%
viability, T/C [35]: 9.75%
viability, T/C [36]: 41.1%

CCN1CCN(Cc2ccc(Nc3ncc(F)c(-c4cc(F)c5nc(C)n(C(C)C)c5c4)n3)nc2)CC1 + C=CC(=O)N1CCN(c2nc(OCC3CCCN3C)nc3c(F)c(-c4nc(N)cc(C)c4C(F)(F)F)c(Cl)cc23)C(C)C1
IC50 (second compound 0.00316 µM): < 3.16 nM
IC50 (second compound 0.01 µM): < 3.16 nM
IC50 (second compound 0.0316 µM): < 3.16 nM
IC50 (second compound 0.1 µM): < 3.16 nM
IC50 (second compound 0.316 µM): < 3.16 nM
IC50 (second compound 1 µM): < 3.16 nM
viability, T/C (second compound 0.00316 µM, first compound 0.00316 µM): 25.2%
viability, T/C (second compound 0.00316 µM, first compound 0.01 µM): 32.4%
viability, T/C [1]: 26.4%
viability, T/C [2]: 21%
viability, T/C [3]: 31.8%
viability, T/C [4]: 36.3%
viability, T/C (second compound 0.01 µM, first compound 0.00316 µM): 25.3%
viability, T/C (second compound 0.01 µM, first compound 0.01 µM): 24.6%
viability, T/C [7]: 24.8%
viability, T/C [8]: 23.3%
viability, T/C [9]: 25.8%
viability, T/C [10]: 30.3%
viability, T/C (second compound 0.0316 µM, first compound 0.00316 µM): 22.7%
viability, T/C (second compound 0.0316 µM, first compound 0.01 µM): 22.1%
viability, T/C [13]: 22.5%
viability, T/C [14]: 18.5%
viability, T/C [15]: 27.8%
viability, T/C [16]: 30.5%
viability, T/C (second compound 0.1 µM, first compound 0.00316 µM): 24.4%
viability, T/C (second compound 0.1 µM, first compound 0.01 µM): 22.2%
viability, T/C [19]: 21%
viability, T/C [20]: 20.7%
viability, T/C [21]: 24.5%
viability, T/C [22]: 31%
viability, T/C (second compound 0.316 µM, first compound 0.00316 µM): 18.9%
viability, T/C (second compound 0.316 µM, first compound 0.01 µM): 20.2%
viability, T/C [25]: 20.3%
viability, T/C [26]: 21.7%
viability, T/C [27]: 27.3%
viability, T/C [28]: 30.4%
viability, T/C (second compound 1 µM, first compound 0.00316 µM): 22.7%
viability, T/C (second compound 1 µM, first compound 0.01 µM): 20.9%
viability, T/C [31]: 23.2%
viability, T/C [32]: 21.2%
viability, T/C [33]: 24.9%
viability, T/C [34]: 37.9%

Cc1nc(N2CCC3(CC2)COC(C)C3N)c(CO)nc1Sc1ccnc(N)c1Cl (stereo not given) + C=CC(=O)N1CCN(c2nc(OCC3CCCN3C)nc3c(F)c(-c4nc(N)cc(C)c4C(F)(F)F)c(Cl)cc23)C(C)C1
IC50 (second compound 0.00316 µM): < 31.6 nM
IC50 (second compound 0.01 µM): < 31.6 nM
IC50 (second compound 0.0316 µM): < 31.6 nM
IC50 (second compound 0.1 µM): < 31.6 nM
IC50 (second compound 0.316 µM): < 31.6 nM
IC50 (second compound 1 µM): < 31.6 nM
viability, T/C [1]: 24.8%
viability, T/C [2]: 21.8%
viability, T/C [3]: 17.4%
viability, T/C [4]: 15%
viability, T/C [5]: 15.1%
viability, T/C [6]: 14.8%
viability, T/C [7]: 30.3%
viability, T/C [8]: 19.8%
viability, T/C [9]: 25%
viability, T/C [10]: 15.4%
viability, T/C [11]: 14.8%
viability, T/C [12]: 14.2%
viability, T/C [13]: 21.1%
viability, T/C [14]: 19.3%
viability, T/C [15]: 13.8%
viability, T/C [16]: 13.8%
viability, T/C [17]: 15.8%
viability, T/C [18]: 17.7%
viability, T/C [19]: 20%
viability, T/C [20]: 15.1%
viability, T/C [21]: 15.7%
viability, T/C [22]: 13.2%
viability, T/C [23]: 17.5%
viability, T/C [24]: 14.4%
viability, T/C [25]: 15.9%
viability, T/C [26]: 16.4%
viability, T/C [27]: 16%
viability, T/C [28]: 13.4%
viability, T/C [29]: 17.7%
viability, T/C [30]: 17.8%
viability, T/C [31]: 21.5%
viability, T/C [32]: 15.2%
viability, T/C [33]: 19.2%
viability, T/C [34]: 15.1%
viability, T/C [35]: 15.9%
viability, T/C [36]: 18.9%

NC1c2ccccc2OC12CCN(c1cnc3c(N4CCCc5ncccc54)n[nH]c3n1)CC2 (stereo not given) + C=CC(=O)N1CCN(c2nc(OCC3CCCN3C)nc3c(F)c(-c4nc(N)cc(C)c4C(F)(F)F)c(Cl)cc23)C(C)C1
IC50 (second compound 0.00316 µM): < 31.6 nM
IC50 (second compound 0.01 µM): < 31.6 nM
IC50 (second compound 0.0316 µM): < 31.6 nM
IC50 (second compound 0.1 µM): < 31.6 nM
IC50 (second compound 0.316 µM): < 31.6 nM
IC50 (second compound 1 µM): < 31.6 nM
viability, T/C [1]: 21.3%
viability, T/C [2]: 17.9%
viability, T/C [3]: 18.1%
viability, T/C [4]: 16.3%
viability, T/C [5]: 13.4%
viability, T/C [6]: 16.3%
viability, T/C [7]: 20.1%
viability, T/C [8]: 17.6%
viability, T/C [9]: 13.2%
viability, T/C [10]: 16.3%
viability, T/C [11]: 15.4%
viability, T/C [12]: 16.6%
viability, T/C [13]: 20.4%
viability, T/C [14]: 18.5%
viability, T/C [15]: 13.9%
viability, T/C [16]: 14.5%
viability, T/C [17]: 15.9%
viability, T/C [18]: 14.8%
viability, T/C [19]: 18.3%
viability, T/C [20]: 15.1%
viability, T/C [21]: 15.3%
viability, T/C [22]: 12.8%
viability, T/C [23]: 16.3%
viability, T/C [24]: 14.2%
viability, T/C [25]: 18.4%
viability, T/C [26]: 16.6%
viability, T/C [27]: 14.5%
viability, T/C [28]: 13.6%
viability, T/C [29]: 14.2%
viability, T/C [30]: 12.9%
viability, T/C [31]: 18.7%
viability, T/C [32]: 14.1%
viability, T/C [33]: 16.4%
viability, T/C [34]: 15.8%
viability, T/C [35]: 14.9%
viability, T/C [36]: 15.9%
